PMC4912613, “A broad analysis of resistance development in the malaria parasite” (Nature Communications, 2016)

Assays:
[1] = system: PfATP4-Mut1 (PfATP4 V178I, parent W2); test: Cross-resistance EC50 assay, PfATP4-Mut1; type: cell-based, Plasmodium falciparum; details: loss of efficacy
Description: To evaluate potential overlapping activity against known antimalarial drug targets, we performed dose-response studies with each compound against our assembled set of drug-resistant lines and their corresponding parents, in an asexual blood stage proliferation assay (Table 1). Comparisons were made to the drug-sensitive strain 3D7 when a parent was unavailable (TM90C2A, W2 and Dd2). As laboratories conducted EC50 assays with different strains and protocols, all comparisons were made between assays from the same laboratory and under the same assay conditions. Compounds displaying >5-fold EC50 shifts relative to the parent or sensitive strain were flagged as having potentially non-novel targets. Average fold shifts per strain ranged from 0.82 to 2.34, with a median of 1.23 indicating there was not common resistance to any one resistant clone. […]
The 48-h assay was carried out in a 96-well format following standard methods using the ^3H-hypoxanthine incorporation assay. […] Radioactivity was measured using a microbeta counter. […] All assays were conducted in triplicate using three independently grown cultures, and EC50 values were determined using the XLfit add-in module for Excel (version 2.3.1) from Grafit (version 5.3.1.3), where parameter h is the assay hill slope, x is the compound concentration and y is the inhibition of growth effect. […]

[2] = system: MMV008149-resistant clones (Dd2 parent; cytochrome bc1 G131S, Y126C, V284L); test: EC50 assay on MMV008149-resistant lines; type: cell-based; details: Plasmodium falciparum, six MMV008149-resistant clones
Experimental: Genomic DNA (gDNA) was isolated from the Dd2 parent and six clones (two clones per resistant selection flask), and samples were prepared for whole-genome sequencing. Samples were sequenced to >60 × coverage using paired end reads and aligned to the 3D7 reference genome and variants were called with HaplotypeCaller (GATK). Comparing the nucleotide variation found in the resistant samples to the Dd2 parent clone, which had been isolated immediately before selections, we identified genomic changes that had presumably occurred during selection. Following this comparison, 19 mutations were identified: 11 SNVs and eight insertion/deletions (INDELs) (Table 2, Supplementary Data 2). INDEL mutations were comprised of intergenic (three), codon INDEL (three), intronic (one) and frame-shift (one) mutations. […] Comparing all six clones, one gene was mutated across all samples: cytochrome bc1. […]
Alternatively, a SYBR Green-based proliferation approach was used for the 72-h assay, as previously described. […] Following incubation, 10 × SYBR Green I (Invitrogen; supplied in 10,000 × concentration) in lysis buffer ([…], 5 mM EDTA, 0.16% Saponin wt per vol and 1.6% Triton X vol per vol) was added to the wells and the plates were incubated overnight at room temperature before plate reading. […]

For `O=C(Nc1ccsc1C(=O)NC1CCCCC1)c1ccc(F)cc1` [MMV665939], the “EC50 fold-shift, PfATP4-Mut1 compared with 3D7” value [1] was 16.6 ×.

`Cc1c(C)n(Cc2ccc(F)cc2)c2ccc(C(=O)NCc3ccco3)cc12` [MMV008149] showed an EC50 [2] of 1.67 to 10.1 µM.
